# Reference: patent US12649748B2, “Wee1 inhibitor and use thereof” (JIANGSU TASLY DIYI PHARMACEUTICAL CO., LTD., priority 2021, dated 2026)
# Key:
# [1] = Metabolic stability of liver microsomes in vitro (human); format: in vitro ADME; conditions: read-out: Human T1/2/min
# Experimental: Microsomes were taken out from the −80° C. refrigerator, rapidly melted in a 37° C. water bath and placed on ice until ready to use. The test article was diluted with DMSO to prepare a 10 mM stock solution, and then diluted with acetonitrile to a 0.5 mM secondary stock solution. The microsomes were diluted to 0.75 mg/ml using Buffer C; the secondary stock solution was then added to a final concentration of 1.5 μM of compound as working solution, based on n=2, 5 time points, 350 μL of each compound was prepared and placed on ice prior to use. NADPH was diluted with Buffer C to a working solution of 6 mM for the starter solution. An acetonitrile solution containing an internal standard was prepared as the precipitant, and Verapamil-HCl was chosen as the internal standard at a concentration of 4 ng/ml.
# A round-bottom well plate was taken, noted as the reaction plate, and the prepared working solution for each compound was dispensed into the well plate according to the number of replicates and time points (0 h samples are also added to the reaction plate), 30 μL/well; the plate was incubated at 37° C. for 10 min. A separate plate with pointed bottom wells, noted as a precipitation plate, was added with 135 μL precipitant per well; 0 h samples were transferred to the plate after 10 min incubation and 15 μL of starter solution was added; the plate was placed on ice before centrifugation.
# The diluted starter solution was added in sufficient quantity to the dispensing plate to facilitate the multichannel pipette aspiration operation.
# The reaction was carried out on a warm incubation shaker and 15 μL of starter solution/sample is added to the plate using a multichannel pipette. The reaction was mixed with a slight shake to initiate the reaction, which was accurately timed and recorded using a timer;
# After the reaction time had elapsed, all the solution in the plate was aspirated using the multichannel pipette and added to the precipitation plate to terminate the reaction at that point in time. After all reactions had been terminated, the plates were shaken for ten minutes on a plate shaker at 600 rpm to precipitate the protein. The plate was centrifuged at 4° C. for 15 minutes at maximum rpm. 80 μL of supernatant was taken, 320 μL of pure water was added and mixed for LC-MS analysis.
# [2] = Compound pharmacokinetics in mice; format: in vivo; conditions: male ICR mice, oral gavage 10 mg/kg, plasma; for Cmax / AUC(0-inf) / half-life: mouse; for AUC(0-inf): read-out: AUCinf—Pred; for half-life: read-out: T½ (converted)
# Experimental: To investigate the pharmacokinetic properties of the compound in mice, six male ICR mice were given the compound by oral gavage (10 mg/kg) at the corresponding dose, and each route of administration was divided into two groups: group A mice had anticoagulated whole blood collected at 5 min, 30 min, 2 h and 8 h after administration, while group B mice had anticoagulated whole blood collected at 15 min, 1 h, 4 h and 24 h after administration, isolated plasma;
# The plasma concentrations of the compounds were determined by LC-MS using a standard curve calibration method. Plasma concentration-time data were fitted to pharmacokinetic parameters using Winnolin 5.2 software.
# [3] = Plasma protein binding (PPB), human; format: in vitro ADME; conditions: 5 h dialysis, read-out: Plasma protein binding rate (%) Human (converted)
# Experimental: Sample preparation: The compound was dissolved in DMSO to a stock solution of 10 mM, then the compound was diluted with PBS to a secondary stock solution of 0.02 mM, and then the above 0.02 mM was diluted to 1 μM using blank plasma, which was the sample to be incubated.
# Dialysis set-up preparation: 400 μL of blank PBS was first added to the white wells of the equilibrated dialysis plate and 200 μL of the configured plasma sample was added to the red wells, and the dialysis plate was sealed with a sealing film.
# Recovery plate preparation: Two 96-well deep-well plates, labelled T0 and T5, were prepared and all plasma samples were added at n=2. 300 μL of acetonitrile (Verapamil-HCl, 4 ng/mL) was added directly to the TO plate, followed by 50 μL of blank PBS mix well for 5 min and left to stand in a 4° C. refrigerator until the end of the incubation.
# Experimental Operation: The dialysis device and the T5 plate were incubated together for 5 h in a microplate thermostatic shaker (37° C., using 300 rpm or minimum speed). At the end of the incubation, 300 μL of acetonitrile (Verapamil-HCl, 4 ng/mL) was added and 50 μL of PBS solution was added. At the end of the dialysis incubation, a new 96-well deep well plate was taken. […]
# [4] = biological target: CYP2D6 (Homo sapiens, UniProt P10635); assay: Inhibition of cytochrome P450, CYP2D6; format: in vitro ADME; conditions: CYP2D6 enzyme, pH 7.4, probe EOMCC, read-out: CYP inhibition/% 2D6; for inhibition at 30 min, 1 µM: compound concentration 1 μM; for inhibition at 30 min, 10 µM: compound concentration 10 μM
# Experimental: Enzymatic experiments were performed to quantify the inhibition of CYP450 enzyme activity of each isoform of CYP450 by small molecule inhibitors through fluorescence generated by the oxidation of the substrate by cytochrome P450. […] The Solution B composition used for the experiment was: 40 U/mL G6PDH (Sigma-aldrich, Cat #G6378). The substrate mix was 0.05× Solution A, 0.01× Solution B, 50 mM Potassium Phosphate, 0.01 mM BOMCC/0.01 mM EOMCC/0.001 mM DBOMF. […] The data were analyzed and processed using GraphPad Prism 6 software to obtain IC50 values.
# Sequence of CYP2D6 (P10635 whole entry, canonical isoform): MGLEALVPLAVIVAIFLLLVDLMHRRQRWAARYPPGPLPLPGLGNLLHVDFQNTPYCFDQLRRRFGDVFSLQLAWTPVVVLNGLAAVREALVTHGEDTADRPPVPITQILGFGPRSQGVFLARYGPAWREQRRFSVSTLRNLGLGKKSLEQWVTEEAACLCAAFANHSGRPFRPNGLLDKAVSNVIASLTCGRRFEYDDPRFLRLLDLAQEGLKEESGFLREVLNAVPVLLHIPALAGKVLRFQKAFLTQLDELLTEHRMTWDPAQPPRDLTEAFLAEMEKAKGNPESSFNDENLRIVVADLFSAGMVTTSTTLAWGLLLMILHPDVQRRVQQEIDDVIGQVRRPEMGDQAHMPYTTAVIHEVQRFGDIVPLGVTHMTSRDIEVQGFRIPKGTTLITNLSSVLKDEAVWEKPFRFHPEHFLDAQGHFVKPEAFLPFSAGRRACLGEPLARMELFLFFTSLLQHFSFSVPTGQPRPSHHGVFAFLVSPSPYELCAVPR
Compound,half-life at 1 µM [1] [h],"inhibition at 30 min, 1 µM [4] [%]","inhibition at 30 min, 10 µM [4] [%]",Cl_pred [2] [mL/min/kg],Cmax [2] [ng/mL],AUC(0-inf) [2] [ng·h/mL],half-life [2] [h],"fraction unbound at 5 h, 1 µM [3]"
"C=CCn1c(=O)c2cnc(Nc3ccc(N4CCN(C)CC4)cc3)nc2n1-c1cccc(C(C)(C)O)n1 [AZD-1775, reference compound]",> 2,–,–,347,445,500,0.77,0.36
CN1CCN(c2ccc(Nc3ncc4cnn(-c5cccc(N=S(C)(C)=O)n5)c4n3)cc2)CC1 [Compound 1],> 2,2.8,2,658,169,260,1.71,0.144
CN1CCN(c2ccc(Nc3ncc4cnn(-c5cccc(C(C)(C)O)n5)c4n3)cc2)CC1 [Compound 2],> 2,0.3,3.1,–,–,–,–,–
Cc1cc(Nc2ncc3cnn(-c4cccc(N=S(C)(C)=O)n4)c3n2)ccc1N1CCC(N(C)C)CC1 [Compound 14],> 2,–,–,–,–,–,–,–

# Second part, led by results:
half-life at 1 µM [1] [h],"inhibition at 30 min, 1 µM [4] [%]","inhibition at 30 min, 10 µM [4] [%]",Compound,Cl_pred [2] [mL/min/kg],Cmax [2] [ng/mL],AUC(0-inf) [2] [ng·h/mL],half-life [2] [h],"fraction unbound at 5 h, 1 µM [3]"
–,-7.6,-19.4,CS(C)(=O)=Nc1cccc(-n2ncc3cnc(Nc4ccc(N5CCOCC5)cc4)nc32)n1 [Compound 6],–,–,–,–,–
> 2,–,–,Cc1cc(Nc2ncc3cnn(-c4cccc(N=S(C)(C)=O)n4)c3n2)ccc1N1CCN(C)CC1 [Compound 16],–,–,–,–,–
